How the values were obtained:
[1] = target: T1, B1R of the rat (Rattus norvegicus, UniProt P97583); test: FLIPR Ca2+ functional assay, B1R antagonism, rat B1R in CHO K1 cells; assay type: cell-based; conditions: test substance 10 μM; rB1R CHO K1 cells; agonist Des-Arg9 bradykinin at EC80; % of maximum achievable inhibition
T1 construct: expressed in transfected cells; host or cells: CHO K1 cells (Chinese hamster ovary), stably transfected
T1 sequence (P97583 1-337): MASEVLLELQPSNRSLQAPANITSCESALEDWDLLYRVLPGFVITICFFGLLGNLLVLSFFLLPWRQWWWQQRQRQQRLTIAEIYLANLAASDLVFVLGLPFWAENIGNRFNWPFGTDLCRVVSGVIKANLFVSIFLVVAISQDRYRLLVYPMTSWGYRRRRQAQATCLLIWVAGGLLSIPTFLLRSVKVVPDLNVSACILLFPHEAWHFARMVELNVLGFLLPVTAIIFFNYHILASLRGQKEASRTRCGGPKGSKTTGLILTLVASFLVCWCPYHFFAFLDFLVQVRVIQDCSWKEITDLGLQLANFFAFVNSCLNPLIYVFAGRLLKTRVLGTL
Procedure, shortened: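 Stably transfected CHO K1 cells loaded with Fluo-4; Ca2+ fluorescence read on FLIPR (ex 488/em 540 nm). Compound preincubated 10-20 min, then agonist at EC80: Lys-Des-Arg9 bradykinin (human) or Des-Arg9 bradykinin (rat). % inhibition vs maximal inhibition; IC50 from concentration series, n=2-3, N>=2.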

[2] = target: T2, human B1R (Homo sapiens, UniProt P46663); test: FLIPR Ca2+ functional assay, B1R antagonism, human B1R in CHO K1 cells; assay type: cell-based; conditions: test substance 10 μM; hB1R CHO K1 cells; agonist Lys-Des-Arg9 bradykinin at EC80; % of maximum achievable inhibition
T2 construct: expressed in transfected cells; host or cells: CHO K1 cells (Chinese hamster ovary), stably transfected
T2 sequence (P46663 1-353): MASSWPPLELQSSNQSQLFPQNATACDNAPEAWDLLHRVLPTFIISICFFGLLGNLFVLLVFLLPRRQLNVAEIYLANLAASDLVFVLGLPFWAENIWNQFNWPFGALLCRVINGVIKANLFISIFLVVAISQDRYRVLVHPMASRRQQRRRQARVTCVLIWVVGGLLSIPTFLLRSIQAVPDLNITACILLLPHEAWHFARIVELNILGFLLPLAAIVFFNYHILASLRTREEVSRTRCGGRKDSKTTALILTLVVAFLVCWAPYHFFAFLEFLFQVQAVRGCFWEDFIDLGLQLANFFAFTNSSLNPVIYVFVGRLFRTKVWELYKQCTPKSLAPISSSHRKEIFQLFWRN
Experimental: The agonistic or antagonistic action of substances on the bradykinin 1 receptor (B1R) of the human and rat species can be quantified with ectopically expressing cell lines (CHO K1 cells) and with the aid of a Ca^2+-sensitive dye (Fluo-4) using a fluorescent imaging plate reader (FLIPR). The value in % activation is based on the Ca^2+ signal after addition of Lys-Des-Arg^9 bradykinin (0.5 nM) or Des-Arg^9 bradykinin (100 nM). Antagonists lead to a suppression of the Ca^2+ influx following administration of the agonist. The % inhibition in comparison with the maximum achievable inhibition is indicated.
1. Functional Investigation on the Bradykinin 1 Receptor (B1R) The agonistic or antagonistic action of substances can be determined on the bradykinin 1 receptor (B1R) of the human and rat species with the following assay. According to this assay, the Ca^2+ inflow through the channel is quantified with the aid of a Ca^2+-sensitive dye (Fluo-4 type, Molecular Probes Europe BV, Leiden, Netherlands) in a fluorescent imaging plate reader (FLIPR, Molecular Devices, Sunnyvale, USA). 2. Method: Chinese hamster ovary cells (CHO K1 cells) which are stably transfected with the human B1R gene (hB1R cells) or the B1R gene of the rat (rB1R cells) are used. For functional investigations these cells are plated-out onto black 96-well plates with a clear base (BD Biosciences, Heidelberg, Germany or Greiner, Frickenhausen, Germany) in a density of 20,000-35,000 cells/well. Overnight the cells are incubated at 37° C. and 5% CO2 in culture medium (hB1R cells: Ham's Nutrient Mixture F12, Gibco Invitrogen GmbH, Karlsruhe, Germany or DMEM, Sigma-Aldrich, Taufkirchen, Germany; rB1R cells: D-MEM/F12, Gibco Invitrogen, Karlsruhe, Germany) with 10 vol. % FBS (foetal bovine serum, Gibco Invitrogen GmbH, Karlsruhe, Germany or PAN Biotech GmbH, Aidenbach, Germany).
On the following day the cells are loaded with 2.13 μM Fluo-4 (Molecular Probes Europe BV, Leiden, Netherlands) in HBSS buffer (Hank's buffered saline solution, Gibco Invitrogen GmbH, Karlsruhe, Germany) with 2.5 mM probenecid (Sigma-Aldrich, Taufkirchen, Germany) and 10 mM HEPES (Sigma-Aldrich, Taufkirchen, Germany) for 60 min at 37° C. The plates are subsequently washed twice with HBSS buffer, and HBSS buffer which additionally contains 0.1% BSA (bovine serum albumin; Sigma-Aldrich, Taufkirchen, Germany), 5.6 mM glucose and 0.05% gelatine (Merck KGaA, Darmstadt, Germany) is added. After a further incubation of 20 minutes at RT, the plates are inserted into the FLIPR for Ca^2+ measurement. Alternatively they are washed with buffer A (15 mM HEPES, 80 mM NaCl, 5 mM KCl, 1.2 mM CaCl2, 0.7 mM MgSO4, 2 g/l glucose, 2.5 mM probenecid) and loaded with buffer A with added 2.5 μM Fluo-4 and 0.025% Pluronic F127 (Sigma-Aldrich, Taufkirchen, Germany). The cells are then washed twice with buffer A and incubated for 30 minutes with buffer A, which additionally contains 0.05% BSA and 0.05% gelatine, at RT and then used for Ca^2+ measurement in the FLIPR. The Ca^2+-dependent fluorescence is measured here before and after addition of substances (λex=488 nm, λem=540 nm). The quantification is performed by measuring the highest fluorescence intensity (FC, fluorescence counts) over time.
The FLIPR protocol comprises two additions of substance. Test substances (10 μM) are first pipetted onto the cells and the Ca^2+ inflow is compared with the control (hB1R: Lys-Des-Arg^9 bradykinin >=50 nM; rB1R: Des-Arg^9 bradykinin 10 μM). The value in % activation based on the Ca^2+ signal after addition of Lys-Des-Arg^9 bradykinin (>=50 nM) or Des-Arg^9 bradykinin (10 μM) is obtained therefrom. After incubation for 10-20 minutes, Lys-Des-Arg^9 bradykinin (hB1R) or Des-Arg^9 bradykinin (rB1R) is applied in the EC80 concentration and the inflow of Ca^2+ is likewise determined.
Antagonists lead to a suppression of the Ca^2+ inflow. The % inhibition in comparison with the maximum achievable inhibition is calculated. […]

| SMILES | inhibition at 10 µM [1] | inhibition at 10 µM [2] |
| --- | --- | --- |
| COc1ccc2cc(S(=O)(=O)N3CCn4cccc4C3CC(=O)N[C@@H]3CCCc4cc(CN5CCCCC5)ccc43)ccc2c1 (stereo partly drawn) [Example 9, 2-(2-(6-Methoxynaphthalen-2-ylsulfonyl)-1,2,3,4-tetrahydropyrrolo[1,2-a]pyrazin-1-yl)-N—((R)-6-(piperidin-1-ylmethyl)-1,2,3,4-tetrahydronaphthalen-1-yl)acetamide] | 103% | 99.5% |
| COc1cc(C)c(S(=O)(=O)N2CCn3cccc3C2COCC(=O)N2CCC3(CC2)CCN(c2ccncc2)CC3)c(C)c1 (centres unmarked) [Example 10, 2-((2-(4-Methoxy-2,6-dimethylphenylsulfonyl)-1,2,3,4-tetrahydropyrrolo[1,2-a]pyrazin-1-yl)methoxy)-1-(9-(pyridin-4-yl)-3,9-diazaspiro[5.5]undecan-3-yl)ethanone] | 103% | 99.8% |
| O=C(COCC1c2cccn2CCN1S(=O)(=O)c1ccccc1C(F)(F)F)N1CCC2(CC1)CCN(c1ccncc1)CC2 (centres unmarked) [Example 11, 1-(9-(Pyridin-4-yl)-3,9-diazaspiro[5.5]undecan-3-yl)-2-((2-(2-(trifluoromethyl)phenylsulfonyl)-1,2,3,4-tetrahydropyrrolo[1,2-a]pyrazin-1-yl)methoxy)ethanone] | 98.1% | 99.9% |
| CN(CCC1CCN(c2ccncc2)CC1)C(=O)COCC1c2cccn2CCN1S(=O)(=O)c1ccccc1C(F)(F)F (centres unmarked) [Example 12, N-Methyl-N-(2-(1-(pyridin-4-yl)piperidin-4-yl)ethyl)-2-((2-(2-(trifluoromethyl)phenylsulfonyl)-1,2,3,4-tetrahydropyrrolo[1,2-a]pyrazin-1-yl)methoxy)acetamide] | 99.3% | 99.5% |
| COc1cc(C)c(S(=O)(=O)N2CCn3cccc3C2COCC(=O)N2CCC(Oc3ccncc3)CC2)c(C)c1 (centres unmarked) [Example 13, 2-((2-(4-Methoxy-2,6-dimethylphenylsulfonyl)-1,2,3,4-tetrahydropyrrolo[1,2-a]pyrazin-1-yl)methoxy)-1-(4-(pyridin-4-yloxy)piperidin-1-yl)ethanone] | 100% | 100% |
| Cc1cccc(Cl)c1S(=O)(=O)N1CCn2cccc2C1COCC(=O)N1CCC2(CC1)CCN(c1ccncc1)CC2 (centres unmarked) [Example 15, 2-((2-(2-Chloro-6-methylphenylsulfonyl)-1,2,3,4-tetrahydropyrrolo[1,2-a]pyrazin-1-yl)methoxy)-1-(9-(pyridin-4-yl)-3,9-diazaspiro[5.5]undecan-3-yl)ethanone] | 98.3% | 99.9% |
| Cc1cccc(Cl)c1S(=O)(=O)N1CCn2cccc2C1COCC(=O)N(C)CCC1CCN(c2ccncc2)CC1 (centres unmarked) [Example 16, 2-((2-(2-Chloro-6-methylphenylsulfonyl)-1,2,3,4-tetrahydropyrrolo[1,2-a]pyrazin-1-yl)methoxy)-N-methyl-N-(2-(1-(pyridin-4-yl)piperidin-4-yl)ethyl)acetamide] | 98.5% | 99.9% |
| COc1cc(C)c(S(=O)(=O)N2CCn3cccc3C2CC(=O)NC2CCNCC2(C)C)c(C)c1 (centres unmarked) [Example 17, N-(3,3-Dimethylpiperidin-4-yl)-2-(2-(4-methoxy-2,6-dimethylphenylsulfonyl)-1,2,3,4-tetrahydropyrrolo[1,2-a]pyrazin-1-yl)acetamide] | 99.2% | 97.4% |
| COc1cc(C)c(S(=O)(=O)N2CCn3cccc3C2CC(=O)N2CCC3(CC2)CCN(c2ccncc2)C3)c(C)c1 (centres unmarked) [Example 18, 2-(2-(4-Methoxy-2,6-dimethylphenylsulfonyl)-1,2,3,4-tetrahydro-pyrrolo[1,2-a]pyrazin-1-yl)-1-(2-(pyridin-4-yl)-2,8-diazaspiro[4.5]decan-8-yl)-ethanone] | 94.8% | 99.9% |
| O=C(COCC1c2cccn2CCN1S(=O)(=O)c1ccccc1C(F)(F)F)N1CCC2(CC1)CCN(c1ccncc1)C2 (centres unmarked) [Example 21, 1-(2-(Pyridin-4-yl)-2,8-diazaspiro[4.5]decan-8-yl)-2-((2-(2-(trifluoromethyl)phenylsulfonyl)-1,2,3,4-tetrahydropyrrolo[1,2-a]pyrazin-1-yl)methoxy)ethanone] | 113% | 100% |
| COc1cc(C)c(S(=O)(=O)N2CCn3cccc3C2COCC(=O)N2CCC3(CCNC3)CC2)c(C)c1 (centres unmarked) [Example 22, 2-((2-(4-Methoxy-2,6-dimethylphenylsulfonyl)-1,2,3,4-tetrahydro-pyrrolo[1,2-a]pyrazin-1-yl)methoxy)-1-(2,8-diazaspiro[4.5]decan-8-yl)ethanone] | 113% | 99.6% |
| COc1cc(C)c(S(=O)(=O)N2CCn3cccc3C2COCC(=O)N2[C@@H]3CC[C@H]2C[C@H](Oc2ccncc2)C3)c(C)c1 (stereo partly drawn) [Example 23, 2-((2-(4-Methoxy-2,6-dimethylphenylsulfonyl)-1,2,3,4-tetrahydropyrrolo[1,2-a]pyrazin-1-yl)methoxy)-1-((1R,3S,5S)-3-(pyridin-4-yloxy)-8-azabicyclo[3.2.1]octan-8-yl)ethanone] | 108% | 100% |
| COc1cc(C)c(S(=O)(=O)N2CCn3cccc3C2COCC(=O)N2CCC(OCCN3CCCC3)(c3cccnc3)CC2)c(C)c1 (centres unmarked) [Example 24, 2-((2-(4-Methoxy-2,6-dimethylphenylsulfonyl)-1,2,3,4-tetrahydropyrrolo[1,2-a]pyrazin-1-yl)methoxy)-1-(4-(pyridin-3-yl)-4-(2-(pyrrolidin-1-yl)ethoxy)piperidin-1-yl)ethanone] | 114% | 99.9% |

Reference: US8158628B2, “Sulfonylated 1,2,3,4-tetrahydropyrrolo[1,2-a]pyrazine compounds and their use as pharmaceuticals” (Gruenenthal GmbH, priority 2009, dated 2012)
